Measured values: the NIST ThermoML archive (doi:10.1021/je0342769)
Several values for one entry are separate records, joined by “and”; a condition that tells them apart may be missing. Identical values can stand only once. Numbers after ± are expanded uncertainties.

Conditions: Liquid, Closed cell (Static) method

FC(C(F)(F)F)C(F)(F)F [1,1,1,2,3,3,3-heptafluoropropane]
Conditions	vapor or sublimation pressure
253.31 K	86.81 ± 0.56 kPa
253.32 K	86.83 ± 0.56 kPa
253.33 K	86.86 ± 0.56 kPa
255.21 K	94.46 ± 0.56 kPa
257.26 K	103.23 ± 0.57 kPa and 103.26 ± 0.57 kPa
259.59 K	114.05 ± 0.57 kPa
261.28 K	122.37 ± 0.58 kPa
263.26 K	132.72 ± 0.58 kPa
265.17 K	143.42 ± 0.83 kPa
267.15 K	155.12 ± 0.83 kPa and 155.14 ± 0.83 kPa
269.19 K	167.93 ± 0.84 kPa
271.14 K	181.01 ± 0.85 kPa
273.13 K	195.16 ± 0.85 kPa
273.14 K	195.21 ± 0.85 kPa
273.16 K	195.29 ± 0.85 kPa
275.15 K	210.31 ± 0.86 kPa
275.17 K	210.44 ± 0.86 kPa
275.18 K	210.49 ± 0.86 kPa
276.99 K	224.91 ± 0.87 kPa
279.19 K	243.27 ± 0.88 kPa
281.14 K	260.66 ± 0.89 kPa
283.18 K	279.74 ± 0.9 kPa
285.18 K	299.49 ± 0.91 kPa
285.19 K	299.62 ± 0.91 kPa
287.14 K	319.89 ± 0.93 kPa
289.07 K	340.97 ± 0.94 kPa
289.1 K	341.37 ± 0.95 kPa
291.06 K	363.71 ± 0.96 kPa
291.16 K	365.01 ± 0.96 kPa
293.04 K	387.68 ± 0.98 kPa
293.15 K	388.98 ± 0.98 kPa
293.23 K	390.05 ± 0.98 kPa
295.22 K	415.24 ± 1 kPa
295.32 K	416.61 ± 1 kPa
297.21 K	441.61 ± 1 kPa
297.22 K	441.76 ± 1 kPa
299.07 K	467.46 ± 1.1 kPa
299.16 K	468.9 ± 1.1 kPa
301.54 K	503.72 ± 1.1 kPa
303.66 K	536.19 ± 1.1 kPa
305.19 K	560.59 ± 1.1 kPa
307.19 K	593.83 ± 1.2 kPa
309.51 K	634.38 ± 1.2 kPa
311.16 K	664.23 ± 1.2 kPa
313.13 K	701.36 ± 1.3 kPa
315.11 K	740.37 ± 1.3 kPa
317.15 K	781.99 ± 1.4 kPa
317.5 K	789.45 ± 1.4 kPa
319.51 K	832.46 ± 1.4 kPa
321.16 K	869.25 ± 1.5 kPa
323.13 K	914.73 ± 1.6 kPa
323.17 K	915.9 ± 1.6 kPa
325.11 K	962.18 ± 1.6 kPa
329.17 K	1065.4 ± 1.7 kPa
333.69 K	1190.1 ± 1.9 kPa
339.17 K	1355.8 ± 2.1 kPa
344.87 K	1545.3 ± 2.4 kPa
349.82 K	1725.8 ± 2.7 kPa
353.22 K	1859.3 ± 2.9 kPa
357.13 K	2022.6 ± 3.2 kPa
361.12 K	2201.1 ± 3.5 kPa
364.88 K	2380.9 ± 3.7 kPa
369.16 K	2600 ± 4.1 kPa
373.22 K	2825.1 ± 4.4 kPa and 2825.2 ± 4.4 kPa and 2825.3 ± 4.4 kPa

FC(F)CC(F)(F)F [1,1,1,3,3-pentafluoropropane]
Conditions	vapor or sublimation pressure
255.22 K	21.93 ± 0.39 kPa
259.37 K	27.28 ± 0.39 kPa and 27.27 ± 0.39 kPa
263.27 K	33.25 ± 0.39 kPa and 33.24 ± 0.39 kPa
267.31 K	40.47 ± 0.39 kPa
271.03 K	48.26 ± 0.4 kPa
275.31 K	58.66 ± 0.4 kPa
279.32 K	69.99 ± 0.4 kPa and 69.98 ± 0.4 kPa
279.33 K	69.98 ± 0.4 kPa and 69.99 ± 0.4 kPa
283.2 K	82.37 ± 0.41 kPa and 82.36 ± 0.41 kPa
285.08 K	89.02 ± 0.41 kPa and 89.05 ± 0.41 kPa
288.91 K	103.68 ± 0.42 kPa and 103.67 ± 0.42 kPa
291.16 K	113.41 ± 0.43 kPa and 113.43 ± 0.43 kPa
291.17 K	113.42 ± 0.43 kPa
292.62 K	119.97 ± 0.43 kPa and 120.01 ± 0.43 kPa
295.55 K	134.37 ± 0.45 kPa and 134.41 ± 0.45 kPa
298.31 K	149.04 ± 0.46 kPa and 149.05 ± 0.46 kPa
300.16 K	159.38 ± 0.47 kPa
313.13 K	250.2 ± 0.54 kPa and 250.26 ± 0.54 kPa and 250.34 ± 0.54 kPa
317.43 K	287.67 ± 0.58 kPa and 287.72 ± 0.58 kPa and 287.84 ± 0.58 kPa
321.77 K	329.9 ± 0.63 kPa and 329.87 ± 0.63 kPa
327.34 K	390.52 ± 0.7 kPa and 390.61 ± 0.7 kPa
333.55 K	467.79 ± 0.79 kPa
344.96 K	639.43 ± 1 kPa
347.8 K	688.83 ± 1.1 kPa and 688.9 ± 1.1 kPa
351.54 K	757.91 ± 1.2 kPa and 757.93 ± 1.2 kPa and 757.86 ± 1.2 kPa
354.13 K	808.71 ± 1.3 kPa
354.15 K	809.38 ± 1.3 kPa
357.7 K	883.2 ± 1.4 kPa
362.21 K	984.31 ± 1.6 kPa and 984.35 ± 1.6 kPa
364.47 K	1038.2 ± 1.6 kPa
367.1 K	1103.6 ± 1.7 kPa
367.11 K	1103.6 ± 1.7 kPa
371.11 K	1209.3 ± 1.9 kPa
371.12 K	1209.3 ± 1.9 kPa
374.81 K	1313.1 ± 2.1 kPa
374.95 K	1317.3 ± 2.1 kPa
377.03 K	1378.9 ± 2.2 kPa
381.38 K	1514.3 ± 2.4 kPa
384.5 K	1617.4 ± 2.5 kPa
388.32 K	1751.2 ± 2.8 kPa
393.64 K	1950.8 ± 3.1 kPa
